According to patent publication US11866450B2, “Modulators of Cystic Fibrosis Transmembrane Conductance regulator, pharmaceutical compositions, methods of treatment, and process for making the modulators” (priority 2018, dated 2024):
pEC50: −log10 of the molar value.

Biological target: CFTR-mediated chloride transport (Homo sapiens, UniProt P13569)
Type: cell-based
Conditions: enteroid cells incubated with test compound 18-24 hours, acute 10 μM forskolin and 300 nM Compound III; for Max. Activity: % of chloride transport with 3 μM Compound A, 3 μM Compound II and 300 nM acute Compound III triple combination control
Description: Base medium (ADF+++) consisted of Advanced DMEM/Ham's F12, 2 mM Glutamax, 10 mM HEPES, […] penicillin/streptomycin.
Intestinal enteroid maintenance medium (IEMM) consisted of ADF+++, 1× B27 supplement, 1× N2 supplement, 1.25 mM N-acetyl cysteine, 10 mM Nicotinamide, 50 ng/mL hEGF, 10 nM Gastrin, 1 μg/mL hR-spondin-1, 100 ng/mL hNoggin, TGF-b type 1 inhibitor A-83-01, 100 μg/mL Primocin, 10 μM P38 MAPK inhibitor SB202190.
Bath 1 Buffer consisted of 1 mM MgCl2, 160 mM NaCl, 4.5 mM KCl, 10 mM HEPES, 10 mM Glucose, 2 mM CaCl2).
Chloride Free Buffer consisted of 1 mM Magnesium Gluconate, 2 mM Calcium Gluconate, 4.5 mM Potassium Gluconate, 160 mM Sodium Gluconate, 10 mM HEPES, 10 mM Glucose.
Bath1 Dye Solution consisted of Bath 1 Buffer, 0.04% Pluronic F127, 20 μM Methyl Oxonol, 30 μM CaCCinh-A01, 30 μM Chicago Sky Blue.
Chloride Free Dye Solution consisted of Chloride Free Buffer, 0.04% Pluronic F127, 20 μM Methyl Oxonol, 30 μM CaCCinh-A01, 30 μM Chicago Sky Blue.
Chloride Free Dye Stimulation Solution consisted of Chloride Free Dye Solution, 10 μM forskolin, 100 μM IBMX, and 300 nM Compound III.
Human intestinal epithelial enteroid cells were obtained from the Hubrecht Institute for Developmental Biology and Stem Cell Research, Utrecht, The Netherlands and expanded in T-Flasks as previously described (Dekkers J F, Wiegerinck C L, de Jonge H R, Bronsveld I, Janssens H M, de Winter-de Groot K M, Brandsma A M, de Jong N W M, Bijvelds M J C, Scholte B J, Nieuwenhuis E E S, van den Brink S, Clevers H, van der Ent C K, Middendorp S and M Beekman J M. A functional CFTR assay using primary cystic fibrosis intestinal organoids. Nat Med. 2013 July; 19(7):939-45).
Cells were recovered in cell recovery solution, collected by centrifugation at 650 rpm for 5 min at 4° C., resuspended in TryPLE and incubated for 5 min at 37° C. Cells were then collected by centrifugation at 650 rpm for 5 min at 4° C. and resuspended in IEMM containing 10 μM ROCK inhibitor (RI) (trans-4-[(1R)-1-aminoethyl]-N-4-pyridinylcyclohexanecarboxamide). The cell suspension was passed through a 40 μm cell strainer and resuspended at 1×10^6 cells/mL in IEMM containing 10 μM RI. Cells were seeded at 5000 cells/well into multi-well plates and incubated for overnight at 37° C., 95% humidity and 5% CO2 prior to assay.
Enteroid cells were incubated with test compound in IEMM for 18-24 hours at 37° C., 95% humidity and 5% CO2. Following compound incubations, a membrane potential dye assay was employed using a FLIPR Tetra to directly measure the potency and efficacy of the test compound on CFTR-mediated chloride transport following acute addition of 10 μM forskolin and 300 nM Compound III. Briefly, cells were washed 5 times in Bath 1 Buffer. Bath 1 Dye Solution was added and the cells were incubated for 25 min at room temperature. Following dye incubation, cells were washed 3 times in Chloride Free Dye Solution. Chloride transport was initiated by addition of Chloride Free Dye Stimulation Solution and the fluorescence signal was read for 15 min. The CFTR-mediated chloride transport for each condition was determined from the AUC of the fluorescence response to acute forskolin and 300 nM Compound III stimulation. Chloride transport was then expressed as a percentage of the chloride transport following treatment with 3 μM Compound A, 3 μM Compound II and 300 nM acute Compound III triple combination control (% Activity).

CFTR-mediated chloride transport, sequence (P13569 whole entry, looked up): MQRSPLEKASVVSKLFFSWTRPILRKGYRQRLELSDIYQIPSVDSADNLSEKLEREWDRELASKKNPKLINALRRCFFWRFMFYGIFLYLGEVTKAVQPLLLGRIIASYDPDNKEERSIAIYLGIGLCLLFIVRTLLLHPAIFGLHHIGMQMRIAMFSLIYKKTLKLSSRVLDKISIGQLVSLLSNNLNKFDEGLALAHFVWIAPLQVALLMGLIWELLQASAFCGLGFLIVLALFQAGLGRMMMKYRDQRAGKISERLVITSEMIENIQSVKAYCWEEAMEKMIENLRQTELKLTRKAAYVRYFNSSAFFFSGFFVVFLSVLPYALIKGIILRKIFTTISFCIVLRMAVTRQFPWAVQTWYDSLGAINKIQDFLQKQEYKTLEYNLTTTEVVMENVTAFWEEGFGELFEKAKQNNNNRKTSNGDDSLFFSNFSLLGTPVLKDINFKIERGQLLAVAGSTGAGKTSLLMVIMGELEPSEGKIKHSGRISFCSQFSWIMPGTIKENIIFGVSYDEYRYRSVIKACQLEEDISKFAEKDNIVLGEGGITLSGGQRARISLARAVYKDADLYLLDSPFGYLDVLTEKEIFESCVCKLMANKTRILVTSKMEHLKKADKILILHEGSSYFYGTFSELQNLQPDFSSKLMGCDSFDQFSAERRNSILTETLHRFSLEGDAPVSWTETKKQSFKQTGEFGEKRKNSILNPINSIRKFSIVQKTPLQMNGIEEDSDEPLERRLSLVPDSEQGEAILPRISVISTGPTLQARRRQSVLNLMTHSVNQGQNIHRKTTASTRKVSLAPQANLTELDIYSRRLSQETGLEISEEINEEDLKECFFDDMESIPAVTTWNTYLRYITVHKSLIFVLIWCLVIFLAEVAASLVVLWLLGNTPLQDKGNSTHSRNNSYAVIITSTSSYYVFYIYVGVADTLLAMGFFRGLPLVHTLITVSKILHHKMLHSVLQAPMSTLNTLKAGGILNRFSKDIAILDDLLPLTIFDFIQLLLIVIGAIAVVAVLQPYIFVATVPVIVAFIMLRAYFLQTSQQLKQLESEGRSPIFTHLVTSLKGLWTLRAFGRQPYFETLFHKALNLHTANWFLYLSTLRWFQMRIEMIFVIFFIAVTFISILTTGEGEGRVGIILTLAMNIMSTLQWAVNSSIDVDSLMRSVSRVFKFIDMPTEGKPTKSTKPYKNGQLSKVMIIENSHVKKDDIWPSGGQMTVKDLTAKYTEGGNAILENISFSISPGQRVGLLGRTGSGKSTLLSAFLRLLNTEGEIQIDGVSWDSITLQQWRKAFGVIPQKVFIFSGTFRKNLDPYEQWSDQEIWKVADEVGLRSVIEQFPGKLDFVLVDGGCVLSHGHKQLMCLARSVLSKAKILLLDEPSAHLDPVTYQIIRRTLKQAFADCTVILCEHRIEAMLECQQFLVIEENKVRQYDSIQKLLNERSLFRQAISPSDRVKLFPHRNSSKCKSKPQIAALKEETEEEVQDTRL

For `CC1(C)CC[C@H]2CCCCNc3cccc(n3)S(=O)(=O)NC(=O)c3ccc(-n4ccc(OCCC5(C(F)(F)F)CC5)n4)nc3N21` (single isomer, unassigned) [Compound 47, 12,12-dimethyl-8-(3-{2-[1-(trifluoromethyl)cyclopropyl]ethoxy}-1H-pyrazol-1-yl)-2λ^6-thia-3,9,11,20,25-pentaazatetracyclo[19.3.1.05,10.011,15]pentacosa-1(24),5,7,9,21(25),22-hexaene-2,2,4-trione], the pEC50 was over 6.00 and the “Max. Activity” value was “+++ (+++ is >60%)”.

For `CC1(C)C[C@@H]2CN1c1nc(-n3ccc(OCCC4C5(CC5)C45CC5)n3)ccc1C(=O)NS(=O)(=O)c1cccc(n1)NCCO2` (single isomer, unassigned) [Compound 196, 8-[3-(2-{dispiro[2.0.2.1]heptan-7-yl}ethoxy)-1H-pyrazol-1-yl]-12,12-dimethyl-15-oxa-2λ^6-thia-3,9,11,18,23-pentaazatetracyclo[17.3.1.111,14.05,10]tetracosa-1(23),5(10),6,8,19,21-hexaene-2,2,4-trione], the pEC50 was 5.52 to 6.00 and the “Max. Activity” value was “++ (++ is 30-60%)”.

With `CC1(C)C[C@@H]2CCCNc3cccc(n3)S(=O)(=O)NC(=O)c3ccc(-n4ccc(OC[C@@H](O)C5C6(CC6)C56CC6)n4)nc3N1C2` (single isomer, unassigned) [Compound 294] the pEC50 was 5.52 to 6.00 and the “Max. Activity” value was “+++ (+++ is >60%)”.

With `CC1(C)C[C@@H]2CCCNc3cccc(n3)S(=O)(=O)NC(=O)c3ccc(-n4ccc(OCC(O)C5C6(CC6)C56CC6)n4)nc3N1C2` (stereo partly drawn) [Compound 257, (14S)-8-[3-(2-{dispiro[2.0.2.1]heptan-7-yl}-2-hydroxyethoxy)-1H-pyrazol-1-yl]-12,12-dimethyl-2λ^6-thia-3,9,11,18,23-pentaazatetracyclo[17.3.1.111,14.05,10]tetracosa-1(22),5,7,9,19(23),20-hexaene-2,2,4-trione] the pEC50 was over 6.00 and the “Max. Activity” value was “+++ (+++ is >60%)”.

For `C[C@@H]1CC[C@H]2CN(c3nc(-n4ccc(OCCC5(C(F)(F)F)CC5)n4)ccc3C(=O)NS(=O)(=O)c3cccc(n3)N1)C(C)(C)C2` (single isomer, unassigned) [Compound 58, 12,12,17-trimethyl-8-(3-{2-[1-(trifluoromethyl)cyclopropyl]ethoxy}-1H-pyrazol-1-yl)-2λ^6-thia-3,9,11,18,23-pentaazatetracyclo[17.3.1.111,14.05,10]tetracosa-1(23),5(10),6,8,19,21-hexaene-2,2,4-trione], the pEC50 was over 6.00 and the “Max. Activity” value was “+ (+ is <30%)”.

With `Cc1c2cnn1CCCC1CN(c3nc(-n4ccc(OCC(C)(C)C(F)(F)F)n4)ccc3C(=O)NS2(=O)=O)C(C)(C)C1` (single isomer, unassigned) [Compound 285, 20,20,22-trimethyl-4-[3-(3,3,3-trifluoro-2,2-dimethylpropoxy)-1H-pyrazol-1-yl]-10λ^6-thia-1,3,9,13,14-pentaazatetracyclo[16.2.1.111,14.02,7]docosa-2,4,6,11(22),12-pentaene-8,10,10-trione] the pEC50 was over 6.00 and the “Max. Activity” value was “+ (+ is <30%)”.

With `CC1(C)CC[C@@H]2CCCNc3cccc(n3)S(=O)(=O)NC(=O)c3ccc(-n4ccc(OCCC5(C(F)(F)F)CC5)n4)nc3N21` [Compound 33, (15S)-12,12-Dimethyl-8-(3-{2-[1-(trifluoromethyl)cyclopropyl]ethoxy}-1H-pyrazol-1-yl)-2λ^6-thia-3,9,11,19,24-pentaazatetracyclo[18.3.1.05,10.011,15]tetracosa-1(23),5,7,9,20(24),21-hexaene-2,2,4-trione] the pEC50 was under 5.52 and the “Max. Activity” value was “+ (+ is <30%)”.

In the case of `CC(C)(C)CC[C@H]1CCN(c2ccc3c(n2)N2C[C@@H](CCCNc4cccc(n4)S(=O)(=O)NC3=O)CC2(C)C)C1=O` (single isomer, unassigned) [Compound 127], the pEC50 was over 6.00 and the “Max. Activity” value was “+++ (+++ is >60%)”.

In the case of `CC1(C)C[C@H]2CCCOc3ccc(cc3)S(=O)(=O)NC(=O)c3ccc(-n4ccc(OCCC5(C(F)(F)F)CC5)n4)nc3N1C2` (single isomer, unassigned) [Compound 99, 12,12-dimethyl-8-(3-{2-[1-(trifluoromethyl)cyclopropyl]ethoxy}-1H-pyrazol-1-yl)-18-oxa-2λ^6-thia-3,9,11-triazatetracyclo[17.2.2.111,14.05,10]tetracosa-1(21),5,7,9,19,22-hexaene-2,2,4-trione], the pEC50 was over 6.00 and the “Max. Activity” value was “+++ (+++ is >60%)”.

`CC1(C)C[C@@H]2CN1c1nc(-n3ccc(OCCC4(C(F)(F)F)CC4)n3)ccc1C(=O)NS(=O)(=O)c1ccn(n1)CCO2` (single isomer, unassigned) [Compound 302, 20,20-Dimethyl-4-(3-{2-[1-(trifluoromethyl)cyclopropyl]ethoxy}-1H-pyrazol-1-yl)-17-oxa-10λ^6-thia-1,3,9,14,22-pentaazatetracyclo[16.2.1.111,14.02,7]docosa-2(7),3,5,11(22),12-pentaene-8,10,10-trione] was tested, and the pEC50 was under 5.52 and the “Max. Activity” value was “+ (+ is <30%)”.

With `Cc1nn2cc1S(=O)(=O)NC(=O)c1ccc(-n3ccc(OCCC4(C(F)(F)F)CC4)n3)nc1N1C[C@H](CCCC2)CC1(C)C` (single isomer, unassigned) [Compound 92, 12,21,21-trimethyl-4-(3-{2-[1-(trifluoromethyl)cyclopropyl]ethoxy}-1H-pyrazol-1-yl)-10λ^6-thia-1,3,9,13,14-pentaazatetracyclo[17.2.1.111,14.02,7]tricosa-2,4,6,11(23),12-pentaene-8,10,10-trione] the pEC50 was over 6.00 and the “Max. Activity” value was “++ (++ is 30-60%)”.

In the case of `CC1(C)C[C@H]2CCCNc3cccc(n3)S(=O)(=O)NC(=O)c3ccc(-n4ccc(OCCC(C5CC5)C5CC5)n4)nc3N1C2` [Compound 65, (14R)-8-[3-(3,3-dicyclopropylpropoxy)-1H-pyrazol-1-yl]-12,12-dimethyl-2λ^6-thia-3,9,11,18,23-pentaazatetracyclo[17.3.1.111,14.05,10]tetracosa-1(22),5,7,9,19(23),20-hexaene-2,2,4-trione], the pEC50 was over 6.00 and the “Max. Activity” value was “++ (++ is 30-60%)”.

For `CC1(C)C[C@H]2CCCNc3ccc(cn3)S(=O)(=O)NC(=O)c3ccc(-n4ccc(OCCC5(C(F)(F)F)CC5)n4)nc3N1C2` (single isomer, unassigned) [Compound 73, 12,12-dimethyl-8-(3-{2-[1-(trifluoromethyl)cyclopropyl]ethoxy}-1H-pyrazol-1-yl)-2λ^6-thia-3,9,11,18,20-pentaazatetracyclo[17.2.2.111,14.05,10]tetracosa-1(22),5,7,9,19(23),20-hexaene-2,2,4-trione], the pEC50 was over 6.00 and the “Max. Activity” value was “+++ (+++ is >60%)”.

`CC1(C)C[C@H]2CCCn3ccc(n3)S(=O)(=O)NC(=O)c3ccc(-n4ccc(OCCC(C5CC5)C5CC5)n4)nc3N1C2` (single isomer, unassigned) [Compound 153, 4-[3-(3,3-dicyclopropylpropoxy)-1H-pyrazol-1-yl]-20,20-dimethyl-10λ^6-thia-1,3,9,14,22-pentaazatetracyclo[16.2.1.111,14.02,7]docosa-2,4,6,11(22),12-pentaene-8,10,10-trione] was tested, and the pEC50 was under 5.52 and the “Max. Activity” value was “+ (+ is <30%)”.

For `CC1(C)CCC2CNc3cccc(n3)S(=O)(=O)NC(=O)c3ccc(-n4ccc(OCCC5(C(F)(F)F)CC5)n4)nc3N21` (stereo not drawn) [Compound 41, 7,7-dimethyl-11-(3-{2-[1-(trifluoromethyl)cyclopropyl]ethoxy}-1H-pyrazol-1-yl)-17λ^6-thia-2,8,10,16,22-pentaazatetracyclo[16.3.1.04,8.09,14]docosa-1(22),9,11,13,18,20-hexaene-15,17,17-trione], the pEC50 was under 5.52 and the “Max. Activity” value was “+ (+ is <30%)”.
